Experimental data reported in PubChem BioAssay (NCI).
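96-well plates; 48 h exposure; 5 concentrations. Endpoints by linear interpolation between flanking doses. Not reached: highest tested concentration assigned. Here, GI50 denotes the concentration required for 50% inhibition of growth. TGI: total growth inhibition.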

How the values were obtained:
Assay in all cases: growth of human tumour cells (NCI), 48 h
786-0 renal = test system: 786-0 renal
A498 renal = test system: A498 renal
ACHN renal = test system: ACHN renal
BT-549 breast = test system: BT-549 breast
CAKI-1 renal = test system: CAKI-1 renal
CCRF-CEM leukemia = test system: CCRF-CEM leukemia
COLO 205 colon = test system: COLO 205 colon
DU-145 prostate = test system: DU-145 prostate
EKVX NSCLC = test system: EKVX NSCLC
HCC-2998 colon = test system: HCC-2998 colon
HCT-116 colon = test system: HCT-116 colon
HCT-15 colon = test system: HCT-15 colon
HL-60(TB) leukemia = test system: HL-60(TB) leukemia
HOP-62 NSCLC = test system: HOP-62 NSCLC
HOP-92 NSCLC = test system: HOP-92 NSCLC
HS 578T breast = test system: HS 578T breast
HT29 colon = test system: HT29 colon
K-562 leukemia = test system: K-562 leukemia
KM12 colon = test system: KM12 colon
LOX IMVI melanoma = test system: LOX IMVI melanoma
M14 melanoma = test system: M14 melanoma
MALME-3M melanoma = test system: MALME-3M melanoma
MCF7 breast = test system: MCF7 breast
MDA-MB-231 breast = test system: MDA-MB-231 breast
MDA-MB-435 = test system: MDA-MB-435
MOLT-4 leukemia = test system: MOLT-4 leukemia
NCI-H226 lung = test system: NCI-H226 lung
NCI-H23 lung = test system: NCI-H23 lung
NCI-H460 lung = test system: NCI-H460 lung
NCI-H522 lung = test system: NCI-H522 lung
NCI/ADR-RES ovarian = test system: NCI/ADR-RES ovarian
OVCAR-3 ovarian = test system: OVCAR-3 ovarian
OVCAR-4 ovarian = test system: OVCAR-4 ovarian
OVCAR-5 ovarian = test system: OVCAR-5 ovarian
OVCAR-8 ovarian = test system: OVCAR-8 ovarian
PC-3 prostate = test system: PC-3 prostate
SF-268 CNS = test system: SF-268 CNS
SF-295 CNS = test system: SF-295 CNS
SF-539 CNS = test system: SF-539 CNS
SK-MEL-2 melanoma = test system: SK-MEL-2 melanoma
SK-MEL-28 melanoma = test system: SK-MEL-28 melanoma
SK-MEL-5 melanoma = test system: SK-MEL-5 melanoma
SK-OV-3 ovarian = test system: SK-OV-3 ovarian
SN12C renal = test system: SN12C renal
SNB-19 CNS = test system: SNB-19 CNS
SNB-75 CNS = test system: SNB-75 CNS
SR leukemia = test system: SR leukemia
SW-620 colon = test system: SW-620 colon
T-47D breast = test system: T-47D breast
TK-10 renal = test system: TK-10 renal
U251 CNS = test system: U251 CNS
UACC-257 melanoma = test system: UACC-257 melanoma
UACC-62 melanoma = test system: UACC-62 melanoma
UO-31 renal = test system: UO-31 renal

## COC(=O)/C(Br)=C/c1c[nH]c2ccc(Br)cc12
786-0 renal
  GI50: 13 µM
  TGI: 35.9 µM
A498 renal
  GI50: 7.98 µM
  TGI: 20.9 µM
ACHN renal
  GI50: 11.8 µM
  TGI: 43.2 µM
BT-549 breast
  GI50: 11.2 µM
  TGI: 23.6 µM
CAKI-1 renal
  GI50: 12.9 µM
  TGI: 29.1 µM
CCRF-CEM leukemia
  GI50: 4.87 µM
  TGI: 22.8 µM
COLO 205 colon
  GI50: 12.5 µM
  TGI: 25.1 µM
DU-145 prostate
  GI50: 13.2 µM
  TGI: 25.9 µM
EKVX NSCLC
  GI50: 12.3 µM
  TGI: 29.7 µM
HCC-2998 colon
  GI50: 15.9 µM
  TGI: 30.4 µM
HCT-116 colon
  GI50: 12.5 µM
  TGI: 27.4 µM
HCT-15 colon
  GI50: 6.26 µM
  TGI: 21.4 µM
HL-60(TB) leukemia
  GI50: 61.3 µM
  TGI: > 100 µM
HOP-62 NSCLC
  GI50: 17.6 µM
  TGI: 51.9 µM
HOP-92 NSCLC
  GI50: 2.13 µM
  TGI: 15.7 µM
HS 578T breast
  GI50: 1.71 µM
  TGI: 17.1 µM
HT29 colon
  GI50: 11 µM
  TGI: 24.8 µM
K-562 leukemia
  GI50: > 100 µM
  TGI: > 100 µM
KM12 colon
  GI50: 12.6 µM
  TGI: 27 µM
LOX IMVI melanoma
  GI50: 7.18 µM
  TGI: 20.2 µM
M14 melanoma
  GI50: 11.4 µM
  TGI: 25.8 µM
MALME-3M melanoma
  GI50: 14.5 µM
  TGI: 28.3 µM
MCF7 breast
  GI50: 10.9 µM
  TGI: 26.8 µM
MDA-MB-231 breast
  GI50: 11.2 µM
  TGI: 30.4 µM
MDA-MB-435
  GI50: 12.2 µM
  TGI: 25.3 µM
MOLT-4 leukemia
  GI50: 10.6 µM
  TGI: > 100 µM
NCI-H226 lung
  GI50: 14.4 µM
  TGI: 33.2 µM
NCI-H23 lung
  GI50: 15.3 µM
  TGI: 33 µM
NCI-H460 lung
  GI50: 17.6 µM
  TGI: 36.9 µM
NCI-H522 lung
  GI50: 10.2 µM
  TGI: 32.1 µM
NCI/ADR-RES ovarian
  GI50: 12.4 µM
  TGI: 47.8 µM
OVCAR-3 ovarian
  GI50: 16.2 µM
  TGI: 66.9 µM
OVCAR-4 ovarian
  GI50: 10.7 µM
  TGI: 56.8 µM
OVCAR-5 ovarian
  GI50: 13.6 µM
  TGI: 31.3 µM
OVCAR-8 ovarian
  GI50: 18.2 µM
  TGI: 34.3 µM
PC-3 prostate
  GI50: 11.2 µM
  TGI: 27.8 µM
SF-268 CNS
  GI50: 15.6 µM
  TGI: 60.3 µM
SF-295 CNS
  GI50: 12.4 µM
  TGI: 27.3 µM
SF-539 CNS
  GI50: 14.9 µM
  TGI: 32.9 µM
SK-MEL-2 melanoma
  GI50: 6.9 µM
  TGI: 25.4 µM
SK-MEL-28 melanoma
  GI50: 14.3 µM
  TGI: 27.8 µM
SK-MEL-5 melanoma
  GI50: 12.2 µM
  TGI: 24.6 µM
SK-OV-3 ovarian
  GI50: 17.7 µM
  TGI: 53.9 µM
SN12C renal
  GI50: 18.4 µM
  TGI: 43.3 µM
SNB-19 CNS
  GI50: 16.7 µM
  TGI: 45.7 µM
SNB-75 CNS
  GI50: 12.2 µM
  TGI: 33 µM
SR leukemia
  GI50: 26.9 µM
  TGI: > 100 µM
SW-620 colon
  GI50: 14.7 µM
  TGI: 27.8 µM
T-47D breast
  GI50: 11.1 µM
  TGI: 24.5 µM
TK-10 renal
  GI50: 19 µM
  TGI: 49.4 µM
U251 CNS
  GI50: 10.2 µM
  TGI: 28.6 µM
UACC-257 melanoma
  GI50: 24.1 µM
  TGI: 69.4 µM
UACC-62 melanoma
  GI50: 12.4 µM
  TGI: 26.7 µM
UO-31 renal
  GI50: 6.36 µM
  TGI: 30.1 µM
